Like-named read-outs stand apart in the source and are kept apart here.
Target: biotinylated Avi-POLθ[2-894] (Homo sapiens (Human), UniProt O75417)
Test: POLθ ATPase assay (ADP-Glo)
Settings: n=2, read-out: Biochemical ATPase ADPGlo IC50
Description: In some embodiments, the ATPase assay a compound of the present disclosure is combined with biotinylated Avi-POLθ[2-894], a 50 nucleotide poly-thymine repeat single-stranded DNA, and ATP in buffer. In some embodiments, the mixture is incubated and ADP-Glo Reagent added, followed by a subsequent incubation. In some embodiments, a Kinase Detection Reagent may be added, followed by a third incubation. In some embodiments, the activity is measured via luminescence signal (e.g., measured with the EnVision multimode plate reader). POLθ-mediated ATP hydrolysis was measured using the ADP-Glo Kinase Assay (Promega Corporation, Madison, WI). Reactions were performed in white 384-well small-volume microplates (Greiner Bio-One, Frickenhausen, Germany) using a total volume of 15 μL. The ATPase reaction consisted of 1 nM biotinylated Avi-POLθ[2-894], 5 nM of a 50 nucleotide poly-thymine repeat single-stranded DNA (PolyT(50) ssDNA), and 100 μM ATP in 5 μL of assay buffer (50 mM Tris, pH 7.5, 80 mM KCl, 10 MgCl2, 1 mM DTT, 5% glycerol, 0.01% BSA, 0.01% Tween-20). Inhibition of POLΘATPase activity was determined by preparing 11-point serial dilutions of the test compounds in 100% DMSO, then transferring 30 nL of the compounds into the ATPase reaction using an Echo acoustic liquid handler (Beckman Coulter, Brea, CA). DMSO-treated wells containing either all of the reaction components (1 nM biotinylated Avi-POLθ[2-894], 5 nM PolyT(50) ssDNA, 100 μM ATP) or with assay buffer substituted for the biotinylated Avi-POLθ[2-894](0 nM biotinylated Avi-POLθ[2-894], 5 nM PolyT(50) ssDNA, 100 μM ATP) were used to define the maximum and minimum response in the assay. Following a one-hour incubation at ambient temperature, 5 μL of ADP-Glo Reagent was added to the ATPase reaction, and this mixture was allowed to incubate at ambient temperature for an additional hour. Lastly, 5 μL of Kinase Detection Reagent was added, followed by a third one-hour incubation at ambient temperature. […] Luminescence signal was measured using the EnVision multimode plate reader (Perkin Elmer. Waltham. MA). […] Non-linear regression analysis using the four-parameter logistic equation was conducted on the percent activity values of the compound dose-responses, yielding the AC50 value for each compound. Genedata Screener (Genedata. Basel, Switzerland) was used for the data analysis.

biotinylated Avi-POLθ[2-894], sequence (O75417 2-894): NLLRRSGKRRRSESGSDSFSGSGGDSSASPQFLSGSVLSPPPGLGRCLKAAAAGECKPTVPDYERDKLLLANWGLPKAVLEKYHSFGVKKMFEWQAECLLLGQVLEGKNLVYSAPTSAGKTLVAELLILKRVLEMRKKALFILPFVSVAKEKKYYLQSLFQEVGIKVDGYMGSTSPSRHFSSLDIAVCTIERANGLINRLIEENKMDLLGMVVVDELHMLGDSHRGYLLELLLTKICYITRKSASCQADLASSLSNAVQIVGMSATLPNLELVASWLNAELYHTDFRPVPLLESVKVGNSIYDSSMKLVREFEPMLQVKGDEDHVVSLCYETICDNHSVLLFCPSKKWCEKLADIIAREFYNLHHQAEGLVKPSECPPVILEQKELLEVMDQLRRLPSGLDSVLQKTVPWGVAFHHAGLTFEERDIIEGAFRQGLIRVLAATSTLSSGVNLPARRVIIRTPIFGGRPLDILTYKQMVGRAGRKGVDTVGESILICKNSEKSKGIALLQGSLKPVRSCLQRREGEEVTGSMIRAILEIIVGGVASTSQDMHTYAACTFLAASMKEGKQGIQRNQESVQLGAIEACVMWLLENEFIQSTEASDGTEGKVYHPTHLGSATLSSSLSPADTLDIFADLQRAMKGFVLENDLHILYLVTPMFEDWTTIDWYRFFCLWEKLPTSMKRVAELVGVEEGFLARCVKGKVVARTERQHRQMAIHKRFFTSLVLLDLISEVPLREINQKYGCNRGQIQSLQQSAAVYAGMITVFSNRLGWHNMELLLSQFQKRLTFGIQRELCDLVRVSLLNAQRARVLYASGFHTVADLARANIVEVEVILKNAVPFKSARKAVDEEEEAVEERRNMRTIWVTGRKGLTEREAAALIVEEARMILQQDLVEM

Row | Structure (SMILES) | IC50 [nM] | IC50 (POLθ ATPase, ADP-Glo) [nM]
1 | COc1ccccc1-c1cc(C)ncc1C(=O)Nc1nc2c(s1)CNC2 | ≥ 900 | 
2 | COc1cnc(Cl)cc1-c1cc(C)ncc1C(=O)Nc1nc2c(s1)CN(C(=O)C1CCC(O)C1)C2 (stereo not shown) [Example 180] | 1 to 15 | 
3 | CCNS(=O)(=O)N1CCc2nc(NC(=O)c3cnc(C)cc3-c3cc(C#N)ccc3OC)sc2C1 | 50 to 150 | 
4 | COc1ccccc1-c1cc(C)ncc1C(=O)Nc1nc2c(s1)CN(c1ccccn1)C2 (racemic) | ≥ 900 | 
5 | COc1cnc(C)cc1-c1cc(C)ncc1C(=O)Nc1nc2c(s1)CN(C(=O)c1ccccn1)C2 [Example 108, 5′-methoxy-2′,6-dimethyl-N-(5-picolinoyl-5,6-dihydro-4H-pyrrolo[3,4-d]thiazol-2-yl)-[4,4′-bipyridine]-3-carboxamide] | 15 to 50 | 
6 | COc1ccc(C#N)cc1-c1cc(C)ncc1C(=O)Nc1nc2c(s1)CN(S(=O)(=O)C1COC1)C2 [Example 217] | 50 to 150 | 
7 | COc1ccc(C#N)cc1-c1cc(C)ncc1C(=O)Nc1nc2c(s1)CN(C(=O)[C@@H]1CCCO1)C2 [Example 261] | 15 to 50 | 
8 | COc1ccccc1-c1cc(C)ncc1C(=O)Nc1nc2c(s1)CN(C(=O)c1ncnn1C)C2 | 150 to 900 | 
9 | COc1cnc(Cl)cc1-c1cc(C)ncc1C(=O)Nc1nc2c(s1)CN(C(=O)N1CC(OC(F)F)C1)C2 | 1 to 15 | 
10 | COc1ccccc1-c1cc(C)ncc1C(=O)Nc1nc2c(s1)CN(C(=O)OC(C)(C)C)CC2 [Example 335] | 150 to 900 | 
11 | COc1cnc(Cl)cc1-c1cc(C)ncc1C(=O)Nc1nc2c(s1)CN(C(=O)c1cnn(C(C)C)c1)C2 [Example 85, 2′-chloro-N-(5-(1-isopropyl-1H-pyrazole-4-carbonyl)-5,6-dihydro-4H-pyrrolo[3,4-d]thiazol-2-yl)-5′-methoxy-6-methyl-[4,4′-bipyridine]-3-carboxamide] | 1 to 15 | 
12 | COc1cnc(Cl)cc1-c1cc(C)ncc1C(=O)Nc1nc2c(s1)CN(C(=O)c1cnc(OC(F)F)cn1)C2 |  | 1 to 15
13 | COc1ccccc1-c1cc(C)ncc1C(=O)Nc1nc2c(s1)CN(C(=O)C1(C)COC1)C2 | ≥ 900 | 
14 | COc1cnc(Cl)cc1-c1cc(C)ncc1C(=O)Nc1nc2c(s1)CN(C(=O)[C@H]1CC[C@](O)(C(F)(F)F)C1)C2 [Example 736, 2′-chloro-N-(S-((1S,3R)-3-hydroxy-3-(trifluoromethyl)cyclopentane-1-carbonyl)-5,6-dihydro-4H-pyrrolo[3,4-d]thiazol-2-yl)-5′-methoxy-6-methyl-[4,4′-bipyridine]-3-carboxamide] |  | 1 to 15
15 | COc1cnc(Cl)cc1-c1cc(C)ncc1C(=O)Nc1nc2c(s1)CN(C(=O)c1ccc(Cl)c(C(F)F)c1)C2 |  | 1 to 15
16 | COc1ccc(C#N)cc1-c1cc(C)ncc1C(=O)Nc1nc2c(s1)CN(C(=O)C1CC(OC(F)F)C1)CC2 (stereo not shown) [Example 176] | 50 to 150 | 

Row | Structure (SMILES) | IC50 [nM] | IC50 (POLθ ATPase, ADP-Glo) [nM]
17 | COc1cnc(Cl)cc1-c1cc(C)ncc1C(=O)Nc1nc2c(s1)CN(C(=O)c1cccnc1OC(F)F)C2 [Example 525] |  | 1 to 15
18 | COc1ccc(C#N)cc1-c1cc(C)ncc1C(=O)Nc1nc2c(s1)CN(C(=O)C1CCOC1)CC2 (stereo not shown) | 150 to 900 | 
19 | COc1cnc(Cl)cc1-c1cc(C)ncc1C(=O)Nc1nc2c(s1)CN(C(=O)[C@@H]1CCC[C@@H](OC)C1)C2 | 1 to 15 | 
20 | COc1cnc(Cl)cc1-c1cc(C)ncc1C(=O)Nc1nc2c(s1)CN(C(=O)c1cc(O)n(C)n1)C2 [Example 92, 2′-chloro-N-(5-(5-hydroxy-1-methyl-1H-pyrazole-3-carbonyl)-5,6-dihydro-4H-pyrrolo[3,4-d]thiazol-2-yl)-5′-methoxy-6-methyl-[4,4′-bipyridine]-3-carboxamide] | 15 to 50 | 
21 | COc1ccccc1-c1cc(C)ncc1C(=O)Nc1nc2c(s1)CN(C(=O)c1cccn(C)c1=O)C2 | 150 to 900 | 
22 | COc1cn2cncc2cc1-c1cc(C)ncc1C(=O)Nc1nc2c(s1)CN(C(=O)c1cccnc1OC)C2 [Example 124] | 1 to 15 | 
23 | COc1ccccc1-c1cc(C)ncc1C(=O)Nc1nc2c(s1)CC(Nc1ccccc1)CC2 (stereo not shown) | 50 to 150 | 
24 | COc1ccccc1-c1cc(C)ncc1C(=O)Nc1nc2c(s1)CN(C(=O)c1cnnn1C)C2 | 150 to 900 | 
25 | COc1cnc(Cl)cc1-c1cc(C)ncc1C(=O)Nc1nc2c(s1)CN(C(=O)c1cccc(OC(F)(F)F)n1)C2 |  | 1 to 15
26 | COc1cnc(Cl)cc1-c1cc(C)ncc1C(=O)Nc1nc2c(s1)CN(C(=O)N1CC[C@@H](O)C1)C2 [Example 129] | 1 to 15 | 
27 | COc1cnc(Cl)cc1-c1cc(C)ncc1C(=O)Nc1nc2c(s1)CN(C(=O)c1nc(C(F)(F)F)co1)C2 |  | 1 to 15
28 | CCNS(=O)(=O)N1Cc2nc(NC(=O)c3cnc(C)cc3-c3ccccc3OC)sc2C1 | 15 to 50 | 
29 | COc1ccc(C#N)cc1-c1cc(C)ncc1C(=O)Nc1nc2c(s1)CN(S(=O)(=O)C1(C)CC1)C2 | 15 to 50 | 
30 | COc1cnc(Cl)cc1-c1cc(C)ncc1C(=O)Nc1nc2c(s1)CN(C(=O)c1ccncn1)C2 |  | 1 to 15
31 | COc1cnc(Cl)cc1-c1cc(C)ncc1C(=O)Nc1nc2c(s1)CN(C(=O)[C@H]1C[C@H](O)C1)C2 [Example 187] | 1 to 15 | 
32 | CCn1ccc(C(=O)N2Cc3nc(NC(=O)c4cnc(C)cc4-c4cc(Cl)ncc4OC)sc3C2)n1 [Example 69, 2′-chloro-N-(5-(1-ethyl-1H-pyrazole-3-carbonyl)-5,6-dihydro-4H-pyrrolo[3,4-d]thiazol-2-yl)-5′-methoxy-6-methyl-[4,4′-bipyridine]-3-carboxamide] | 1 to 15 | 

Second part, the compound after the results:

Row | IC50 [nM] | IC50 (POLθ ATPase, ADP-Glo) [nM] | Structure (SMILES)
33 | 50 to 150 |  | COc1ccccc1-c1cc(C)ncc1C(=O)Nc1nc2c(s1)CN(C(=O)c1cccnc1)C2
34 | 1 to 15 |  | COc1cnc(Cl)cc1-c1cc(C)ncc1C(=O)Nc1nc2c(s1)CN(C(=O)c1ccnn1C(C)C)C2 [Example 75, 2′-chloro-N-(5-(1-isopropyl-1H-pyrazole-5-carbonyl)-5,6-dihydro-4H-pyrrolo[3,4-d]thiazol-2-yl)-5′-methoxy-6-methyl-[4,4′-bipyridine]-3-carboxamide]
35 | ≥ 900 |  | COc1ccccc1-c1cc(C)ncc1C(=O)Nc1nc2c(s1)CN(C(=O)C1CCN1C(C)=O)C2 (stereo not shown)
36 | 150 to 900 |  | COc1ccccc1-c1cc(C)ncc1C(=O)Nc1nc2c(s1)CN(C(=O)C1CCC1C#N)C2 (stereo not shown)
37 | 1 to 15 |  | COc1cnc(Cl)cc1-c1cc(C)ncc1C(=O)Nc1nc2c(s1)CN(C(=O)C1CC(O)(C(F)(F)F)C1)C2 (stereo not shown) [Example 204]
38 | 150 to 900 |  | COc1ccccc1-c1cc(C)ncc1C(=O)Nc1nc2c(s1)CN(C(=O)c1cnn(C)c1)C2
39 | ≥ 900 |  | COc1ccccc1-c1cc(C)ncc1C(=O)Nc1nc2c(s1)CN(C(=O)C1CCCS1(=O)=O)C2 (stereo not shown)
40 | ≥ 900 |  | COc1ccccc1-c1cc(C)ncc1C(=O)Nc1nc2c(s1)C(=O)N(C1CC1)C2
41 | 50 to 150 |  | COc1ccccc1-c1cc(C)ncc1C(=O)Nc1nc2c(s1)CN(C(=O)c1ncco1)C2
42 | 150 to 900 |  | COc1ccccc1-c1cc(C)ncc1C(=O)Nc1nc2c(s1)CN(C(=O)C1CCNC1=O)C2 (stereo not shown) [Example 345]
43 |  | 1 to 15 | COc1cnc(Cl)cc1-c1cc(C)ncc1C(=O)Nc1nc2c(s1)CN(C(=O)c1ncc(C)n1C)C2
44 | ≥ 900 |  | COc1ccccc1-c1cc(C)ncc1C(=O)Nc1nc2c(s1)CC(Oc1ccccc1)CC2 (stereo not shown)
45 | 50 to 150 |  | CNS(=O)(=O)N1Cc2nc(NC(=O)c3cnc(C)cc3-c3ccccc3OC)sc2C1
46 | 1 to 15 |  | COc1cnc(Cl)cc1-c1cc(C)ncc1C(=O)Nc1nc2c(s1)CN(C(=O)c1ncc(C)cn1)C2 [Example 34, 2′-chloro-5′-methoxy-6-methyl-N-(5-(5-methylpyrimidine-2-carbonyl)-5,6-dihydro-4H-pyrrolo[3,4-d]thiazol-2-yl)-[4,4′-bipyridine]-3-carboxamide]

Source: patent US20250230171A1 (MOMA Therapeutics, Inc., priority 2023, published 2025)
